{"source": "ChEMBL document CHEMBL2010654", "about": "“Novel isoxazole polycyclic aromatic hydrocarbons as DNA-intercalating agents” (Eur J Med Chem, 2012)", "key": {"MOLT-3": {"tested_on": "MOLT-3", "assay": "Cytotoxicity against human MOLT3 cells after 20 hrs by MTS assay", "assay_type": "functional, cell-based", "details": "MOLT-3, 20 h"}, "THP-1": {"tested_on": "THP-1", "assay": "Cytotoxicity against human THP1 cells after 20 hrs by MTS assay", "assay_type": "functional, cell-based", "details": "THP-1, 20 h"}, "U-937": {"tested_on": "U-937", "assay": "Cytotoxicity against human U937 cells after 20 hrs by MTS assay", "assay_type": "functional, cell-based", "details": "U-937, 20 h"}, "A549 [1]": {"tested_on": "A549", "assay": "Cytotoxicity against human A549 cells after 20 hrs by SRB assay", "assay_type": "functional, cell-based", "details": "A549, 20 h"}, "Vero": {"tested_on": "Vero", "assay": "Cytotoxicity against african green monkey Vero cells after 20 hrs by MTS assay", "assay_type": "cell-based", "details": "Chlorocebus sabaeus"}, "HeLa": {"tested_on": "HeLa", "assay": "Cytotoxicity against human HeLa cells after 20 hrs by MTS assay", "assay_type": "functional, cell-based"}, "A549 [2]": {"tested_on": "A549", "assay": "Cytotoxicity against human A549 cells assessed as reduction of cell number at 0.5 ug/ml after 8 hrs relative to control", "assay_type": "functional", "design": "scale not given: the % may be the effect or the level left"}, "Nucleic Acid [3]": {"tested_on": "Nucleic Acid", "assay": "Binding affinity to calf thymus DNA by UV titration analysis", "assay_type": "nucleic-acid assay", "details": "Bos taurus"}, "Nucleic Acid [4]": {"tested_on": "Nucleic Acid", "assay": "Binding affinity to polyd(GC)2 DNA by UV titration analysis", "assay_type": "nucleic-acid assay"}, "Nucleic Acid [5]": {"tested_on": "Nucleic Acid", "assay": "Binding affinity to Escherichia coli supercoiled phiX174 RF1 DNA assessed as DNA unwinding in presence of topoisomerase 1 after 30 mins by agarose gel electrophoresis", "assay_type": "nucleic-acid assay"}, "Nucleic Acid [6]": {"tested_on": "Nucleic Acid", "assay": "Binding affinity to poly-d(AT)2 DNA by UV titration analysis", "assay_type": "nucleic-acid assay"}}, "note": "Activity calls are given as the source filed them. The rule behind the calls is not given here. *1 amine or outer side, *2 acyl side, *3 side chain or, on linkers, in order; H or OH if unused. Where a SMILES comes first, the peptide text is derived from it. Bridges are numbered along the chain shown (N, C = ends). Roman numbers before positions name the chains, in order. [ ]: non-standard residue; d: D form. Actinocin(1to9) = Cc1c2oc3c(C)ccc(C(=O)[*:2])c3nc-2c(C(=O)[*:1])c(N)c1=O; NMeV = CN[C@H](C(=O)O)C(C)C; Sar = CNCC(=O)O", "data": [{"smiles": "CN(C)C(=O)[C@H]1C[C@H](c2cc3ccccc3c3ccccc23)N(Cc2ccccc2)O1", "note": "(racemic)", "values": [{"measurement": "IC50", "setting": "MOLT-3", "result": 15, "unit": "µM"}, {"measurement": "IC50", "setting": "THP-1", "result": 17, "unit": "µM"}, {"measurement": "IC50", "setting": "U-937", "result": 100, "unit": "µM"}, {"measurement": "IC50", "setting": "A549 [1]", "result": 10, "unit": "µM"}, {"measurement": "IC50", "setting": "Vero", "result": 115, "unit": "µM"}, {"measurement": "IC50", "setting": "HeLa", "result": 14, "unit": "µM"}]}, {"smiles": "CN(C)C(=O)[C@H]1C[C@H](c2ccc3ccc4cccc5ccc2c3c45)N(C)O1", "note": "(racemic)", "values": [{"measurement": "IC50", "setting": "MOLT-3", "result": 52, "unit": "µM"}, {"measurement": "IC50", "setting": "THP-1", "result": 60, "unit": "µM"}, {"measurement": "IC50", "setting": "U-937", "result": 165, "unit": "µM"}, {"measurement": "IC50", "setting": "A549 [1]", "result": 41, "unit": "µM"}, {"measurement": "IC50", "setting": "Vero", "result": 141, "unit": "µM"}, {"measurement": "IC50", "setting": "HeLa", "result": 63, "unit": "µM"}]}, {"smiles": "CN(C)C(=O)[C@H]1C[C@H](c2cc3ccccc3c3ccccc23)N(C)O1", "values": [{"measurement": "IC50", "setting": "MOLT-3", "result": 105, "unit": "µM"}, {"measurement": "IC50", "setting": "THP-1", "result": 95, "unit": "µM"}, {"measurement": "IC50", "setting": "U-937", "result": 98, "unit": "µM"}, {"measurement": "IC50", "setting": "A549 [1]", "result": 68, "unit": "µM"}, {"measurement": "IC50", "setting": "Vero", "result": 160, "unit": "µM"}, {"measurement": "IC50", "setting": "HeLa", "result": 86, "unit": "µM"}]}, {"smiles": "CN(C)C(=O)[C@@H]1C[C@H](c2ccc3ccc4cccc5ccc2c3c45)N(C)O1", "note": "(racemic)", "values": [{"measurement": "IC50", "setting": "MOLT-3", "result": 69, "unit": "µM"}, {"measurement": "IC50", "setting": "THP-1", "result": 75, "unit": "µM"}, {"measurement": "IC50", "setting": "U-937", "result": 199, "unit": "µM"}, {"measurement": "IC50", "setting": "A549 [1]", "result": 55, "unit": "µM"}, {"measurement": "IC50", "setting": "Vero", "result": 163, "unit": "µM"}, {"measurement": "IC50", "setting": "HeLa", "result": 75, "unit": "µM"}]}, {"smiles": "Cc1c2oc3c(C)ccc(C(=O)N[C@@H]4C(=O)N[C@H](C(C)C)C(=O)N5CCC[C@H]5C(=O)N(C)CC(=O)N(C)[C@@H](C(C)C)C(=O)O[C@@H]4C)c3nc-2c(C(=O)N[C@@H]2C(=O)N[C@H](C(C)C)C(=O)N3CCC[C@H]3C(=O)N(C)CC(=O)N(C)[C@@H](C(C)C)C(=O)O[C@@H]2C)c(N)c1=O", "note": "[DACTINOMYCIN] (I: T[dV]P[Sar][NMeV] / II: T[dV]P[Sar][NMeV]; ester I:1-I:C, II:1-II:C; linker I:N-II:N via Actinocin(1to9))", "values": [{"measurement": "Activity", "setting": "A549 [2]", "result": 40, "unit": "%"}]}, {"smiles": "CN1O[C@H](CO)C[C@@H]1c1ccc2ccc3cccc4ccc1c2c34", "note": "(relative stereo)", "values": [{"measurement": "Kb", "setting": "Nucleic Acid [3]", "result": 6.8, "unit": "×10³ /M"}]}, {"smiles": "CN(C)C(=O)c1cc(-c2ccc3ccc4cccc5ccc2c3c45)no1", "values": [{"measurement": "IC50", "setting": "MOLT-3", "result": 73, "unit": "µM"}, {"measurement": "IC50", "setting": "THP-1", "result": 78, "unit": "µM"}, {"measurement": "IC50", "setting": "U-937", "result": 202, "unit": "µM"}, {"measurement": "IC50", "setting": "A549 [1]", "result": 60, "unit": "µM"}, {"measurement": "IC50", "setting": "Vero", "result": 165, "unit": "µM"}, {"measurement": "IC50", "setting": "HeLa", "result": 71, "unit": "µM"}]}, {"smiles": "CN(C)C(=O)C1CC(c2cc3ccccc3c3ccccc23)=NO1", "note": "(configuration not stated)", "values": [{"measurement": "IC50", "setting": "MOLT-3", "result": "> 500", "unit": "µM"}, {"measurement": "IC50", "setting": "THP-1", "result": "> 500", "unit": "µM"}, {"measurement": "IC50", "setting": "U-937", "result": "> 500", "unit": "µM"}, {"measurement": "IC50", "setting": "A549 [1]", "result": 435, "unit": "µM"}, {"measurement": "IC50", "setting": "Vero", "result": "> 500", "unit": "µM"}, {"measurement": "IC50", "setting": "HeLa", "result": 401, "unit": "µM"}]}, {"smiles": "CN(C)C(=O)[C@H]1CON(Cc2ccccc2)[C@H]1c1ccc2ccc3cccc4ccc1c2c34", "note": "(racemic)", "values": [{"measurement": "IC50", "setting": "MOLT-3", "result": 100, "unit": "µM"}, {"measurement": "IC50", "setting": "THP-1", "result": 93, "unit": "µM"}, {"measurement": "IC50", "setting": "U-937", "result": 102, "unit": "µM"}, {"measurement": "IC50", "setting": "A549 [1]", "result": 63, "unit": "µM"}, {"measurement": "IC50", "setting": "Vero", "result": 151, "unit": "µM"}, {"measurement": "IC50", "setting": "HeLa", "result": 79, "unit": "µM"}]}, {"smiles": "CN(C)C(=O)c1cc(-c2cc3ccccc3c3ccccc23)no1", "values": [{"measurement": "IC50", "setting": "MOLT-3", "result": 420, "unit": "µM"}, {"measurement": "IC50", "setting": "THP-1", "result": 403, "unit": "µM"}, {"measurement": "IC50", "setting": "U-937", "result": "> 500", "unit": "µM"}, {"measurement": "IC50", "setting": "A549 [1]", "result": 335, "unit": "µM"}, {"measurement": "IC50", "setting": "Vero", "result": "> 500", "unit": "µM"}, {"measurement": "IC50", "setting": "HeLa", "result": 290, "unit": "µM"}]}, {"smiles": "CN(C)C(=O)[C@@H]1CON(C)[C@H]1c1ccc2ccc3cccc4ccc1c2c34", "note": "(racemic)", "values": [{"measurement": "IC50", "setting": "MOLT-3", "result": 59, "unit": "µM"}, {"measurement": "IC50", "setting": "THP-1", "result": 61, "unit": "µM"}, {"measurement": "IC50", "setting": "U-937", "result": 185, "unit": "µM"}, {"measurement": "IC50", "setting": "A549 [1]", "result": 44, "unit": "µM"}, {"measurement": "IC50", "setting": "Vero", "result": 143, "unit": "µM"}, {"measurement": "IC50", "setting": "HeLa", "result": 65, "unit": "µM"}]}, {"smiles": "CN(C)C(=O)[C@H]1C[C@H](c2ccc3ccc4cccc5ccc2c3c45)N(Cc2ccccc2)O1", "note": "(racemic)", "values": [{"measurement": "Kb", "setting": "Nucleic Acid [4]", "result": 0.3, "unit": "×10⁵ /M"}, {"measurement": "IC50", "setting": "MOLT-3", "result": 6, "unit": "µM"}, {"measurement": "Activity", "setting": "Nucleic Acid [5]", "result": "Active"}, {"measurement": "IC50", "setting": "THP-1", "result": 6, "unit": "µM"}, {"measurement": "IC50", "setting": "U-937", "result": 37, "unit": "µM"}, {"measurement": "Kb", "setting": "Nucleic Acid [6]", "result": 1.6, "unit": "×10⁵ /M"}, {"measurement": "IC50", "setting": "A549 [1]", "result": 4, "unit": "µM"}, {"measurement": "IC50", "setting": "Vero", "result": 42, "unit": "µM"}, {"measurement": "Kb", "setting": "Nucleic Acid [3]", "result": 1.7, "unit": "×10⁵ /M"}, {"measurement": "IC50", "setting": "HeLa", "result": 5, "unit": "µM"}]}, {"smiles": "CN(C)C(=O)C1CC(c2ccc3ccc4cccc5ccc2c3c45)=NO1", "note": "(configuration not stated)", "values": [{"measurement": "IC50", "setting": "MOLT-3", "result": 65, "unit": "µM"}, {"measurement": "IC50", "setting": "THP-1", "result": 69, "unit": "µM"}, {"measurement": "IC50", "setting": "U-937", "result": 194, "unit": "µM"}, {"measurement": "IC50", "setting": "A549 [1]", "result": 49, "unit": "µM"}, {"measurement": "IC50", "setting": "Vero", "result": 160, "unit": "µM"}, {"measurement": "IC50", "setting": "HeLa", "result": 69, "unit": "µM"}]}]}
